Data taken from paper PMC11213865, “Mechanisms contributing to inhibition of retinal ganglion cell death by cell permeable peptain-1 under glaucomatous stress” (Cell Death Discovery, 2024).
No end group written: not given here.

What was measured:
[1] = tested on: RGC; conditions: accumulates within RGC somas in a time-dependent manner; cited from earlier work
[2] = tested on: Human retinal endothelial cells; assay: Cell penetration and retention, western blot with anti-P1 monoclonal antibody; assay type: in vitro ADME; conditions: 16 h; for intracellular concentration (level of P1 in cells, densitometry relative to β-actin): cell uptake, 100 µM peptide, serum-free DMEM/F12 (low glucose), cell lysate, western blot with anti-P1 monoclonal antibody, mean ± SEM, n = 3
Experimental: Fig. 1 Conjugation with CPP increases the cell permeability of P1. A Human retinal endothelial cells were treated with vehicle (CONT), P1 or CPP-P1 (100 µM). Following incubation for 16 h, the levels of P1 in cells were detected by western blotting using an anti-P1 monoclonal antibody. Densitometric analysis was performed relative to β-actin levels (n = 3). Data represented as mean ± SEM, One-way ANOVA followed by Tukey’s multiple comparisons test, ***p < 0.001, ns-not significant. The entire western blot image is shown in Supplementary Figure 1. B Human retinal explants comparing the difference in neuroprotective efficacy of P1 with and without the CPP. C Representative images, RBPMS, Scale bar = 100 µm.
Human retinal endothelial cells were incubated with vehicle, P1, or CPP-P1 (100 µM) in serum-free DMEM/F12 (low glucose) medium for 16 h. Cells were treated with 1X RIPA buffer containing protease inhibitor cocktail and cell lysates were prepared. Western blot was performed using an anti-P1 monoclonal antibody with β-actin as the loading control (n = 3).

Sequence	RGC permeability [1]	intracellular concentration (level of P1 in cells, densitometry relative to β-actin) [2]	cell permeability of CPP-P1 relative to P1 ([2]; 100 µM, human retinal endothelial cells, western blot)
DRFSVNLDVKHFSPEELKVK [P1]	RGC-permeable	0.23 ± 0.01	–
VPTLKDRFSVNLDVKHFSPEELKVK [CPP-P1]	–	1.41 ± 0.17	approximately seven
